Usually pEC50 stands for −log10 of the EC50, conventionally taken in molar units. Read a low pEC50 as a large EC50.

The target in test [1] is T1, human mGlu5 receptor (Homo sapiens, UniProt P41594). The experiment in a line: Bodipy-FL GTPγS activation of purified Gq/Gs by purified receptor ([…] ligand); pEC50 from IP-One assay in HEK293 cells. The class given is biochemical. Further details: gene GRM5; mGlu5-Δ856 (C-terminus truncated after Ala856).
Target sequence in this assay (P41594 21-856): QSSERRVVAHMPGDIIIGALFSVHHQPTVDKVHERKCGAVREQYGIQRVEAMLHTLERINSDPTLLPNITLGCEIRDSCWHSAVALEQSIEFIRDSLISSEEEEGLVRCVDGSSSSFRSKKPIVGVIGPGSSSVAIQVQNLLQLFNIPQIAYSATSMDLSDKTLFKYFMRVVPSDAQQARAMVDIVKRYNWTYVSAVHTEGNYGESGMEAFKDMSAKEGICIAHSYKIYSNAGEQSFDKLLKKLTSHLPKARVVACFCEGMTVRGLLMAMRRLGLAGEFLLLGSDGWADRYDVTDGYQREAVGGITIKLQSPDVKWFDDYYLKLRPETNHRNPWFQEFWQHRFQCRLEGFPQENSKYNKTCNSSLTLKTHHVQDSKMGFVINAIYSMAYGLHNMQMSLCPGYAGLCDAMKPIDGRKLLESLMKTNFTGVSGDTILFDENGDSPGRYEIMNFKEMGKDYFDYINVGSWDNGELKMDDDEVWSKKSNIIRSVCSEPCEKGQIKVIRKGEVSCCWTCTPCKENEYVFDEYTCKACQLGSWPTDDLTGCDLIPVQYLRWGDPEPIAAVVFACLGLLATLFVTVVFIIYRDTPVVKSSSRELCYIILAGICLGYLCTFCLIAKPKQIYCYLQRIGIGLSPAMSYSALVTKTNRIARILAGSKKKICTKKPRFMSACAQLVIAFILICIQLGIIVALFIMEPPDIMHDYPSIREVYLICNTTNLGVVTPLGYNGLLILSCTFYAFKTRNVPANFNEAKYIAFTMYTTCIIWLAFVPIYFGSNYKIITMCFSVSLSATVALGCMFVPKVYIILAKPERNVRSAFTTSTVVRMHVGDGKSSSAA
Test [2] deals with T1, human mGlu5 receptor. The experiment in a line: IP-One accumulation in transfected HEK293 cells. The format is cell-based. Further details: gene GRM5; full-length wild-type (SNAP-tagged).
Target sequence in this assay (P41594 21-1212): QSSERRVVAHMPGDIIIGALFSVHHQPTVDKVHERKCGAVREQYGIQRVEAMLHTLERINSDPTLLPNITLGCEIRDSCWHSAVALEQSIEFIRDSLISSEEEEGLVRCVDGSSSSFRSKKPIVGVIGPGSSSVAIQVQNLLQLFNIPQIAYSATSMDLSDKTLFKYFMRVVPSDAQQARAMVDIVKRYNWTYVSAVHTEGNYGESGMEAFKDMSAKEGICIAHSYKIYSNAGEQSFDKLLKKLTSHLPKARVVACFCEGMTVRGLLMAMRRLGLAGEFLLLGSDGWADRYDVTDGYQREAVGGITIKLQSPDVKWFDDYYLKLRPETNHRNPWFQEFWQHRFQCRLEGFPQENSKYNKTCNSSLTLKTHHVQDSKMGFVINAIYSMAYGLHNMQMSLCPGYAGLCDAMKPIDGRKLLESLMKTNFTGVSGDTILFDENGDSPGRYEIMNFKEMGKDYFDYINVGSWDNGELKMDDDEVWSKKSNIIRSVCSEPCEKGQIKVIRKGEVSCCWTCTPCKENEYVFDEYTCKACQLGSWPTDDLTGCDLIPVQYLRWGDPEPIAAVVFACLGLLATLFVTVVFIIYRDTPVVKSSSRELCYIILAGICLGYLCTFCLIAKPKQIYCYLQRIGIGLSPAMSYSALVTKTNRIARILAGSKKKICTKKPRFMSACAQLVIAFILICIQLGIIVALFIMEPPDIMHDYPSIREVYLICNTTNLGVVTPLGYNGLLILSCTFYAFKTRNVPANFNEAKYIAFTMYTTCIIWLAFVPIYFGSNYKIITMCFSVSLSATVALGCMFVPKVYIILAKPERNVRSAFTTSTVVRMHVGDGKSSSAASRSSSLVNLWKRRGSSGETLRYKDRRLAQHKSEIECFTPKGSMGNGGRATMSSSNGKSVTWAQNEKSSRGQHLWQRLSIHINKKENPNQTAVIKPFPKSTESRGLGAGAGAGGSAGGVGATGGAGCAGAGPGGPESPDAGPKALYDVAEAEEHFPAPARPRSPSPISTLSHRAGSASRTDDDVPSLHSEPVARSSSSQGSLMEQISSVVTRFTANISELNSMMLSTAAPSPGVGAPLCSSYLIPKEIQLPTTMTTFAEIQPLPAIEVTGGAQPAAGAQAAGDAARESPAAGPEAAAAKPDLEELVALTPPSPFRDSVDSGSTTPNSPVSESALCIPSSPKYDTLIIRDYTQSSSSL

Each structure is given as a SMILES string. pEC50: −log10 of the molar value.

In test [1], `C[C@@H](NC(=O)c1ccc(C#Cc2cccc(F)c2)cn1)C(C)(C)O` [VU0424465, (R)-5-((3-fluorophenyl)ethynyl)-N-(3-hydroxy-3-methylbutan-2-yl) picolinamide] had a pEC50 of 8.53. As for `N[C@@H](Cn1oc(=O)[nH]c1=O)C(=O)O` [quisqualate], in test [2], the pEC50 was 7.51.

For the origin of these results see publication PMC5849714, “Direct coupling of detergent purified human mGlu5 receptor to the heterotrimeric G proteins Gq and Gs” (Scientific Reports, 2018).
